This note sets out measurements from patent EP4620312A1, “ENDOTHELIN-1 SECRETION INHIBITOR” (Mitsui DM Sugar Co., Ltd., priority 2022, dated 2024).

This experiment has as its system endothelin-1. As to the kind of experiment: Endothelin-1 concentration in blood (ELISA) before and after a 75-g OGTT during 12-week daily jelly ingestion. As to conditions: for endothelin-1 concentration at 60 minutes and 120 minutes after the 75-g OGTT compared to before the 75-g OGTT: healthy middle to elderly persons. Type of experiment: in vivo, human. As for the experimental part:
Subjects were 54 healthy middle to elderly persons (30 males and 24 females). All subjects were assigned to one of the groups, i.e., an isomaltulose ingestion group (Group I) and a sucrose ingestion group (Group S), in a single blind test before intervention, and the intervention was performed for 12 weeks each.
All subjects ingested jellies having compositions described in Table 1 once a day for 12 weeks continuously. Group I received a jelly containing isomaltulose (Example 1), and group S received a jelly containing sucrose (Comparative Example 1). The jelly was taken every morning before breakfast, and all subjects were instructed not to change their dietary habits during the intervention period from those before the intervention. A 75 g oral glucose tolerance test (75-g OGTT, described in detail below) was performed before the 12-week intervention and at 4 weeks, 8 weeks, and 12 weeks after the start of the intervention, after the lapse of 1 day or more from the ingestion of the jelly and the secretion amount of endothelin-1 was evaluated by the method described below before the 75-g OGTT and at 60 minutes and 120 minutes after the 75-g OGTT.
The 75-g OGTT was performed under the instruction of a doctor using TRELAN- G 75 g (Yoshindo Inc.), which is generally used in medical institutions and research, and the test solution was orally ingested in a general volume (225 mL per dose) within 5 minutes according to the guidelines of the Japan Diabetes Society (Araki E, Goto A, Kondo T, Noda M, Noto H, Origasa H, et al. Japanese Clinical Practice Guideline for Diabetes 2019. J Diabetes Investig 2020; 11: 1020-1076.).
For all subjects, blood was collected from the cubital vein in a fasting state for 12 hours or more in a hygienic environment. Before ingestion of a carbohydrate solution for the 75-g OGTT and at 60 minutes and 120 minutes after the ingestion, a nurse collected blood (15 to 20 mL per collection) using a sterilized disposable blood collection needle under the instruction of a doctor. A sample after blood collection was immediately centrifuged at 4°C and 3000 rpm for 15 minutes, and the concentration of endothelin-1 was measured by ELISA (enzyme-linked immunosorbent assay) using a test kit (Cayman Chemical, Ann Arbor) for measuring the concentration of endothelin-1.
A change in endothelin-1 concentration before and after the start of the intervention of each group was shown as the average value (95% confidence interval). For the comparison of the change in endothelin-1 concentration between the 2 groups before and after the 75-g OGTT, a two-way repeated measures ANOVA was used. The Bonferroni method was performed for comparison of changes in each intervention in post-hoc test. The total area under the curve at 90 minutes (endothelin-1 concentration AUC) was calculated using the trapezoidal rule. For statistical analysis, IBM SPSS Statistics Ver. 25 (manufactured by IBM Corporation) was used. The statistical significance level in this test was set at 5%.
Background: In an ELISA, binding on a coated surface is turned into a signal by an enzyme label.

[1] abbreviates: jelly with 25 g once a day, oral, at 4, 8, and 12 weeks after the start of the intervention.

Turning to “6-O-α-D-glucopyranosyl-D-fructose [isomaltulose]”, where the note is “after 75-g OGTT at 4, 8, and 12 weeks after the start of the intervention, Group I versus Group S”, the “secretion of endothelin-1 (overall conclusion)” value is listed as “inhibited the secretion of endothelin-1”. The “endothelin-1 concentration at 60 minutes and 120 minutes after the 75-g OGTT compared to before the 75-g OGTT” value under setting [1] is recorded as “no significant change”. The “endothelin-1 concentration before the 75-g OGTT and at 60 minutes and 120 minutes after the 75-g OGTT, Group I versus Group S” value (jelly with 25 g once a day, oral, at 4, 8, and 12 weeks after the start of the intervention, p < 0.01) is reported as “significantly lower value”. For the setting “jelly with 25 g once a day, oral, at 4, 8, and 12 weeks after the start of the intervention, trapezoidal rule, p < 0.01”, the “endothelin-1 concentration AUC, Group I versus Group S” value is recorded as “significantly lower value”.

With `OC[C@H]1O[C@@](CO)(O[C@H]2O[C@H](CO)[C@@H](O)[C@H](O)[C@H]2O)[C@@H](O)[C@@H]1O` [sucrose, reference compound], the “endothelin-1 concentration at 60 minutes and 120 minutes after the 75-g OGTT compared to before the 75-g OGTT” value under setting [1] is reported as “significantly increased”.
